How the values were obtained:
[1] = cited from earlier work; for level of antibody response induced: mice, antigens bovine serum albumin and cytochrome b5; for IgG2a response to cytochrome b5: saponin doses of 20 μg
[2] = system: Fc α R, Fc gamma R1, Fc gamma RII or Fc gamma RIII; assay: Upregulation of Fc receptors (FACScan); format: cell-based; details: QS-21 for example 1-10 ug/ml
Method: Monocytes, natural killer cells, or polymorphonuclear cells are incubated in the presence or absence of QS-21 (for example 1-10 ug/ml). The trypsinized cells are incubated at 4° C. for 60 min with monoclonal antibodies specific to Fc α R, Fc gamma R1, Fc gamma RII or Fc gamma RIII. The cells are then incubated with an anti-mouse IgG FITC probe, washed, fixed in paraformaldehyde, and analyzed by FACScan.

[3] = mouse, in vivo; cited from earlier work
[4] = system: S. pneumonia or S. aureus; assay: Opsonophagocytosis assay with HL-60 effector cells; format: cell-based; details: HL-60 effector cells incubated with QS-21, at a given antibody titer
[5] = system: target cells (E.G7-OVA or MO4); assay: Enhancement of antibody mediated lysis in vitro (51Cr-labeled target cells); format: cell-based, mice; details: splenocytes incubated with 1 to 10 ug/ml QS-21 for 24 to 72 hours; monoclonal antibody to SIINFEKL/Class I MHC 1 to 10 ug/ml
Method: Murine splenocytes (effector cells) are generated from the spleens of naive 6-8week old mice. These effector cells are incubated with 1 to 10 ug/ml of QS-21 or appropriate amount of another immunomodulatory saponin for 24 to 72 hours. At the end of the incubation period, target cells (E.G7-OVA or MO4) are loaded with 51 Cr. Effector cells and labeled target cells are incubated at defined effector:target ratios in the presence and absence of monoclonal antibody to SIINFEKL (SEQ ID NO: 1)/Class I MHC (1 to 10 ug/ml) at […] for 30 to 60minutes. The lysis in the presence of QS-21 and monoclonal is compared to controls without QS-21, without monoclonal, or both.

[6] = melanoma patients; cited from earlier work
[7] = system: bone marrow derived dendritic cells; assay: Cytokine production in bone marrow derived dendritic cells; format: cell-based
macrophage cells = assay: Cytokine production in macrophage cells; format: cell-based
[8] = system: MO4 tumor or EG7-OVA tumor; assay: Tumor challenge model; format: in vivo, C57B1/6 mice; details: QS-21 (10-20 ug) with monoclonal antibody vs monoclonal antibody alone; 30 to 60 day period
Method: C57B1/6 mice are inoculated by s.c. route in the flank with MO4 tumor (1 ×10^5) or EG7-OVA tumor. At 24 to 48 hours after inoculation, mice are injected by IP route with a monoclonal antibody to SIINFEKL (SEQ ID NO: 1)/Class I MHC , or by local SC route in the presence or absence of QS-21 (10 -20 ug). The antitumor effect of the QS-21/monoclonal antibody treatment is compared to that of monoclonal antibody treatment by monitoring the growth of the tumors over a 30 to 60 day period (measurement with calipers). Survival was determined, and significance with respect to time to death was assessed using Cox regression analysis. Mice were also observed daily for signs of toxicity including level of activity, ruffled fur, diarrhea, and general appearance. […] Models and methods for evaluation of the effects of saponins and antibodies, or other immunoreactive reagents are known in the art. (Wooldridge et al., Blood, 1997, 89 (8): 2994-2998, incorporated by reference herein in its entirety).

Row | Substance | level of antibody response induced [1] | IgG2a response to cytochrome b5 [1] | Fc receptors on monocytes, natural killer cells, or polymorphonuclear cells [2] | toxicity in mice [3] | opsonization of bacteria [4] | lysis due to QS-21/monoclonal over monoclonal alone [5] | serological response to MELIMMUNE-1 [6] | production of II-12 [7] | production of IL-1 [7] | production of MIP-1-alpha [7] | production of MIP-1-beta [7] | IL-6 (macrophage cells) | MIP-1-alpha (macrophage cells) | TNF-alpha (macrophage cells) | tumor progression [8]
1 | QS-17 | comparable to other commonly used adjuvants | stimulate IgG2a response |  |  |  |  |  |  |  |  |  |  |  |  | 
2 | QS-18 | comparable to other commonly used adjuvants | stimulate IgG2a response |  |  |  |  |  |  |  |  |  |  |  |  | 
3 | QS-21 | comparable to other commonly used adjuvants | stimulate IgG2a response | Upregulation | least toxic | Improved opsonization | enhanced lysis | significantly increased | decrease the production | increase production | increase production | decrease the production | upregulation | upregulation | upregulation | delay in tumor progression
